{"source": "paper PMC2852430", "about": "(Biochemistry, 2010)", "key": {"[1]": {"tested_on": "bovine brain tubulin (BbTb)", "test": "Association kinetics of ligand binding to BbTb by fluorescence", "conditions": "25°C, […] μM allocolchicine; for kf, apparent second order rate constant of the fast phase of biphasic binding to BbTb: 1 μM BbTb, 20 μM colchicinoid"}, "[2]": {"molecular_target": "chicken erythrocyte tubulin (CeTb), ~95% βVI (Gallus gallus, UniProt P09207)", "sequence (P09207 whole entry)": "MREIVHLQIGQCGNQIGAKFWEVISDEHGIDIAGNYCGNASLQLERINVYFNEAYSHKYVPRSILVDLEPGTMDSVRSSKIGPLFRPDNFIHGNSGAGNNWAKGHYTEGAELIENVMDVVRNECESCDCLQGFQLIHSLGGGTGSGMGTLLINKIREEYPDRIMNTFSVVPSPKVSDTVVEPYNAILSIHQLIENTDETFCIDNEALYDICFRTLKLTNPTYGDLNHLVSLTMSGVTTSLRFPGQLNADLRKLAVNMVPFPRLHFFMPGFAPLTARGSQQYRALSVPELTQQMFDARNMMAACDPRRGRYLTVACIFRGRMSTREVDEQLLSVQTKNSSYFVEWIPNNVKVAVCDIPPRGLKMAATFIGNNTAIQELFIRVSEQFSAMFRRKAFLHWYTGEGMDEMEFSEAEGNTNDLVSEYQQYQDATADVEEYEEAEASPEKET", "sequence (P02552 whole entry partner)": "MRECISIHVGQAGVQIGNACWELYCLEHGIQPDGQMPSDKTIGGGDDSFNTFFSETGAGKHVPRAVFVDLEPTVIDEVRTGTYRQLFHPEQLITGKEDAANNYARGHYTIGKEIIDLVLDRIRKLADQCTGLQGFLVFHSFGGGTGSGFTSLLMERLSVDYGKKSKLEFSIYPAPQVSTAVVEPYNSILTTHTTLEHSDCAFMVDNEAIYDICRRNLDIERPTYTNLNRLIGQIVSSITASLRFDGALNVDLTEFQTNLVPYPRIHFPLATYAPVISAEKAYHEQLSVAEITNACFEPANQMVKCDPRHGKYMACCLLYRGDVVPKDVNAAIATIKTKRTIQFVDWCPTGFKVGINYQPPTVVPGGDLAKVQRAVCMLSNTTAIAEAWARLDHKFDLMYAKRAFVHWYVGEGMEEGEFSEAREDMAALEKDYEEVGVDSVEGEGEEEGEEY", "test": "biochemical", "format": "biochemical"}, "[3]": {"tested_on": "bovine brain tubulin (BbTb)", "test": "Equilibrium fluorescence titration of allocolchicine with BbTb", "format": "binding", "conditions": "25°C"}, "[4]": {"tested_on": "bovine brain tubulin (BbTb)", "test": "Inhibition of paclitaxel-induced tubulin assembly", "format": "biochemical", "conditions": "read-out: IC50, inhibition of Taxol-induced assembly of BbTb; 2 μM tubulin"}, "[5]": {"tested_on": "cells containing human β1", "conditions": "cited from earlier work"}}}
{"smiles": "COc1cc2c(c(OC)c1OC)-c1ccc(Cl)c(=O)cc1C(NC(C)=O)CC2", "note": "(stereo not drawn) [Chlorocolchicine, 10-demethoxy-10-chlorocolchicine]", "values": [{"measurement": "kf, apparent second order rate constant of the fast phase of biphasic binding to BbTb", "setting": "[1]", "value": "367 ± 7", "unit": "M⁻¹ s⁻¹"}]}
{"smiles": "COc1cc([C@@H]2c3cc4c(cc3[C@H](O)[C@H]3COC(=O)[C@H]23)OCO4)cc(OC)c1OC", "note": "[Podophyllotoxin, podophyllotoxin]", "values": [{"measurement": "IC50", "setting": "[2]", "value": "25 ± 1", "unit": "µM"}, {"measurement": "IC50 for CeTb assembly relative to IC50 for BbTb", "setting": "[2]; 5 μM tubulin, same experimental conditions", "value": "about 15 fold"}]}
{"smiles": "COC(=O)c1ccc2c(c1)[C@@H](NC(C)=O)CCc1cc(OC)c(OC)c(OC)c1-2", "note": "[Allocolchicine, allocolchicine]", "values": [{"measurement": "Ligand concentration at which fluorescence enhancement plateaus, BbTb", "setting": "[3]; 1 μM BbTb", "value": "about 20 μM"}, {"measurement": "Association constant (Ka) for BbTb", "setting": "[3]; 1 μM tubulin, 10% DMSO, single site isotherm", "value": 500000, "unit": "M⁻¹"}, {"measurement": "kf, apparent second order rate constant of the fast phase of biphasic binding to BbTb", "setting": "[1]", "value": "343 ± 7", "unit": "M⁻¹ s⁻¹"}, {"measurement": "Time for binding to BbTb to attain a plateau", "setting": "[1]; 1 μM tubulin", "value": "≤ 600", "unit": "s"}, {"measurement": "IC50", "setting": "[4]", "value": 0.5, "unit": "µM"}]}
{"smiles": "COc1cc2c(cc1O)CC[C@@H]1[C@@H]2CC[C@]2(C)[C@@H](O)CC[C@@H]12", "note": "[2-methoxyestradiol]", "values": [{"measurement": "Sensitivity of cells containing human β1 to ligand", "setting": "[5]", "value": "insensitive"}]}
